Each molecule was assayed against T1, ASIC1 (hASIC1; ASIC1a as primary isoform in tsA-201 cells) (Homo sapiens, UniProt P78348) (assay: automated patch clamp, single concentration). Details: tsA201, read-out: % inhibition @ 30 µM.
T1 sequence (P78348 1-528): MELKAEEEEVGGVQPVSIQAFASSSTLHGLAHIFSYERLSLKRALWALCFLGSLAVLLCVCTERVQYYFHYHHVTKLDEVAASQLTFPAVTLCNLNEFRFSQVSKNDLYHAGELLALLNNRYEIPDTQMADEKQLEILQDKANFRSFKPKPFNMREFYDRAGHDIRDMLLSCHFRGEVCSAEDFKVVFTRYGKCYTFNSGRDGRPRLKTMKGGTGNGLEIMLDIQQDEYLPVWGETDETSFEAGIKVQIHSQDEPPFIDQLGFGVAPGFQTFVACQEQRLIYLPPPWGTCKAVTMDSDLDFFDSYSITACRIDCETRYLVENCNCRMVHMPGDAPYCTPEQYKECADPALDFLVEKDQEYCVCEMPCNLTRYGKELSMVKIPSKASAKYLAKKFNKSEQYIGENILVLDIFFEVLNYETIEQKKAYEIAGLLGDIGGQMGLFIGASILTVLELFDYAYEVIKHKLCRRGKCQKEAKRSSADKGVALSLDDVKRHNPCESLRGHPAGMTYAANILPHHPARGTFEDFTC
Assay type: cell-based

Row | inhibition at 30 µM | SMILES
1 | 82 ± 1% | N=C(N)NC(=O)c1nc(-c2cc3cc(F)ccc3o2)c(N)nc1N [compound 23, 23]
2 | 71 ± 2% | CC(C)(C)c1ccc2oc(-c3nc(C(=O)NC(=N)N)c(N)nc3N)cc2c1 [compound 21, 21]
3 | 82 ± 1% | COc1ccc2oc(-c3nc(C(=O)NC(=N)N)c(N)nc3N)cc2c1 [compound 29, 29]
